Measured values taken from ChEMBL document CHEMBL4130354 (Eur J Med Chem, 2017).

Target: T1, Prostaglandin G/H synthase 2 (Ovis aries, UniProt P79208)
T1 sequence (P79208 whole entry): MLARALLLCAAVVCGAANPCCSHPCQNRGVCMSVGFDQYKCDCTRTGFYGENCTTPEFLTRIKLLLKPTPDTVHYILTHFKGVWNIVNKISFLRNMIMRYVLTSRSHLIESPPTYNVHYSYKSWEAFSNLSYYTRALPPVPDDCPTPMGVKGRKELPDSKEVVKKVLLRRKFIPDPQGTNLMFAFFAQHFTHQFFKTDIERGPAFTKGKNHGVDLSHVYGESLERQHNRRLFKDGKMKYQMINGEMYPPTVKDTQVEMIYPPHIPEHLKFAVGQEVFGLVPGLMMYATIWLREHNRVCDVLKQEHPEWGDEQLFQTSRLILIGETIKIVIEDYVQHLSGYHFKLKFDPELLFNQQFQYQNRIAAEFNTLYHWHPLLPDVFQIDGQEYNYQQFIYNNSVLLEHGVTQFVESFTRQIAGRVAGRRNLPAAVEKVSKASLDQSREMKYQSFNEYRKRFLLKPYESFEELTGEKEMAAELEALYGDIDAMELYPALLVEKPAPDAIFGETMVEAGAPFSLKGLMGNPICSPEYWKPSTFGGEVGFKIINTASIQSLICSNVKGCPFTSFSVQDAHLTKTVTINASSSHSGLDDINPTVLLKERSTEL
Assay: Inhibition of recombinant ovine COX2 catalytic activity using arachidonic acid as substrate preincubated for 5 mins followed by substrate and hemin addition measured after 2 mins by colorimetric method

| IC50 | SMILES |
| --- | --- |
| > 50 µM | Cc1onc(-c2ccc(Cl)o2)c1-c1ccccc1 |
| > 50 µM | COc1ccc(-c2noc(CC(=O)O)c2-c2ccc(OC)cc2)cc1 [MOFEZOLAC] |
